Laboratory results as given in patent US5506239A, “Carbostyril derivative and platelets aggregation inhibitory agent” (Otsuka Pharmaceutical Co., Ltd., priority 1991, dated 1996).

Tests used:
[1] = tested on: platelets; assay: Platelets aggregation inhibitory activity (method of Born et al.), ADP-induced, human PRP (Pharmacological Test I); type: cell-based, man; conditions: 7.5 μM ADP, 37° C., read-out: IC50 ADP (50% platelets aggregation inhibition)
Method: (§1) The platelets aggregation inhibitory activity of each test compound was measured by the method of Born et al. [J. Physiol., London, 162, 67 (1962)], using Platelets Aggregation Tracer manufactured by Nikoh Bioscience Co., Ltd.
(§2) 9 volumes of a blood collected from person was mixed with 1 volume of a 3.8% aqueous sodium citrate solution. Part of the mixture was subjected to centrifugation at 1,100 rpm for 10 minutes to obtain a platelet rich plasma (PRP). The remainder of the mixture was also subjected to centrifugation at 3,000 rpm for 10 minutes to obtain a platelet poor plasma (PPP).
(§3) The number of platelets in the PRP was measured using Coulter Counter manufactured by Coulter Electronics Inc. Then, the PRP was diluted with the PPP so that the number of platelets in the dilution became 300,000, whereby a PRP solution was prepared.
(§4) 200 μl of this PRP solution and 2 ml of a solution containing a test compound at a given concentration were placed in an aggregation measurement cell and heated at 37° C. for 1 minute. Thereto was added 20 μl of adenosine diphosphate (ADP manufactured by Sigma Co.) or a collagen suspension (Collagen Reagent manufactured by Horm, Hormon-Chemie, Gmbh) to induce aggregation of platelets. The resulting mixture in the cell was measured for change of transmittance, after which a platelets aggregation curve was prepared. Incidentaly, the concentration of ADP or collagen was selected so that the final Concentration became 7.5 μM or 20 μg/ml.
(§5) Using the platelets aggregation curve, there was calculated a maximum aggregation rate (MAR) of platelets using the followoing formula: […]
(§6) wherein a represents a transmittance of the PRP obtained in the same manner; c represents a transmittance of the PPP obtained in the same manner; and b represents a transmittance at the maximum change, of the PRP solution containng the test compound and the aggregation inducer.
(§7) A MAR was also calculated as above, for the control containing no test compound.
(§8) Using the above two MARs, there were calculated platelets aggregation inhibitions (%) of each test compound at various concentrations using the following formula.
(§9) Inhibition=[1-(MAR of PRP solution containing test compound)/(MAR of PRP
(§10) solution containing no test compound)]×100
(§11) Using the above obtained platelets aggregation inhibitions (%) of each test compound at various concentrations, there was calculated a concentration (IC50) of each test compound for 50% platelets aggregation inhibition.

[2] = tested on: platelets; assay: Platelets aggregation inhibitory activity (method of Born et al.), collagen-induced, human PRP (Pharmacological Test I); type: cell-based, man; conditions: 20 μg/ml collagen, 37° C., read-out: IC50 Collagen (50% platelets aggregation inhibition)
Method: as §1, §2, §3, §4, §5, §6, §7, §8, §9, §10, §11

[3] = tested on: mongrel dogs; conditions: dog, in vivo, 300 mg/kg
Method: The heart rate-increasing activity and blood pressure hypotensive activity of each test compound were measured by the following method, using mongrel dogs each weighing 10-20 kg. That is, said dogs were anesthesized by intravenous injection of pentobarbital sodium, then fixed at the back, and tested under artificial respiration. The blood pressures of the dogs were measured by a blood pressure measuring transducer (P23×L manufactured by Gould Statham Instruments, Inc.) via cannula inserted into the femoral artery. The heart rates of the dogs were measured using the pulse wave of the blood pressure of each dog, via a tachometer. The signals of these testng apparatuses were recorded on a thermal pen-type recorder (Recti-Horize 8K manufactured by Nippon Denki-San-ei Sha).
Some of the compounds obtained in the above Examples were used as test compounds. […] Then, the heart rate of each dog was measured according to the above method and a maximum change in heart rate was calculated.

[4] = tested on: platelets; assay: Inhibition of collagen-induced platelets adhesion, washed platelets (Pharmacological Test III); type: cell-based, man; conditions: Platelet, 50 μg/ml collagen, human washed platelets, read-out: Inhibition (%) of collagen-induced platelets adherence
Method: A blood was collected from a healthy person with normal platelets function by addition of 0.1% disodium ethylenediaminetetraacetate (EDTA.4Na) and immediately subjected to separation of a platelet rich plasma (PRP). The PRP was washed twice with a Tyrode's buffer solution (50mM TRIS, 0.1% EDTA, Ca (-), Mg (-), 0.14% BSA added, pH=7.4), and suspended in the buffer solution so that the number of platelets in the resulting suspension became 300, 000/ml, to obtain a platelets suspension (EDTA-WP). 4 mg of Type I manufactured by Sigma Co., derived from a bovine skin was dissolved in 0.25 ml of acetic acid (83.5 mM); 8 ml of distilled water was added thereto; an ultrasonic wave was applied to the mixture at 4° C. for 2 minutes; 5 ml of the supernatant liquid was separated as a collagen solution. Each test compound was dissolved in dimethylformamide (DMF) so as to give a concentration of at least […] when possible, to prepare a test compound solution. The change in turbidity of platelets suspension was recorded as a change in transmitted light emitted from a glass cell containing the suspension, using a platelets aggregation tracer manufactured by Nikoh Bioscience K.K., generally used in the test of platelets aggregation function, whereby the adherence of platelets was measured. Incidentally, in recoridng the change in transmitted light, the sensitivity of the recorder was 5 times as high as that used generally. 200 μl of the EDTA-WP was placed in a glass cell exclusively used for the above platelets aggregation tester. Further, 1 μl of the test compound solution was added. The mixture was incubated at room temperature for 5 minutes. Then, the cell was set in the platelets aggregation tracer and was allowed to stand for 1 minute until the temperature became 37° C. Thereafter, about 20 μl (50 μg/ml) of the collagen solution was added, and the adherence of platelets were measured.
The inhibitions (%) of collagen-induced platelets adhesion by each test compound at various concentrations were calculated using the following formula.
Inhibition (%)=[1-(platelets adherence when test compound added)/
(platelets adherence when no test compound added)]×100

Row | SMILES | IC50 ([1]; Homo sapiens, Platelet) [µM] | IC50 ([2]; Homo sapiens, Platelet) [µM] | also measured
1 | O=c1ccc2cc(OCCCCN(CCN3CCC(O)CC3)CC3CCCCCCC3)ccc2[nH]1 [Example 15] | 10 | – | IC50 [2]: 3.6 µM; Maximum change in heart rate [3]: 1 beats/minute
2 | O=c1ccc2cc(OCCCCN(CCN3CCC(O)CC3)CC3CCCCCCC3)ccc2[nH]1 [Example 16] | – | – | IC50 [1]: 6.3 µM; IC50 [2]: 7.4 µM; inhibition at 10 µM [4]: 48%
3 | O=C(CN(CCCCOc1ccc2[nH]c(=O)ccc2c1)CC1CCCCCCC1)N1CCC(O)CC1 [Example 19] | 6.1 | 5.3 | Maximum change in heart rate [3]: 24 beats/minute
4 | O=C(CN(CCCCCOc1ccc2[nH]c(=O)ccc2c1)Cc1ccccc1)N1CCC(O)CC1 [Example 20] | 2 | 1.2 | inhibition at 10 µM [4]: 49%
5 | O=c1ccc2cc(OCCCCN(CCN3CCC(O)CC3)CC3CCCCC3)ccc2[nH]1 [Example 23] | 8 | 9.5 | Maximum change in heart rate [3]: -2 beats/minute
6 | CN(C)C(=O)[C@@H]1CCCN1CCN(CCCCCOc1ccc2[nH]c(=O)ccc2c1)Cc1ccccc1 [Example 53] | 11 | 13 | inhibition at 30 µM [4]: 35%
7 | O=C(O)CN(CCCCOc1ccc2[nH]c(=O)ccc2c1)CC1CCCCCCC1 [Example 64] | 9 | 10 | inhibition at 30 µM [4]: 31%
8 | O=c1ccc2cc(OCCCCN(CC(O)CO)CC3CCCCC3)ccc2[nH]1 (centres unmarked) [Example 68] | 15 | 7.1 | Maximum change in heart rate [3]: 30 beats/minute
9 | COC(=O)[C@@H]1C[C@@H](O)CN1CCCCOc1ccc2[nH]c(=O)ccc2c1 [Example 73] | 25 | 6.9 | inhibition at 100 µM ([4]; dose 100 μM): 36%
10 | O=C(NCC1CCCCC1)[C@@H]1C[C@@H](O)CN1CCCCOc1ccc2[nH]c(=O)ccc2c1 [Example 75] | 9.1 | 13 | inhibition at 300 µM ([4]; dose 300 μM): 57%
11 | CN(C1CCCCC1)S(=O)(=O)CCCOc1ccc2[nH]c(=O)ccc2c1 [Example 76] | – | – | inhibition at 30 µM [4]: 35%
12 | O=c1ccc2cc(OCCCS(=O)(=O)N(CCN3CCC(O)CC3)Cc3ccccc3)ccc2[nH]1 [Example 83] | 11 | 4.3 | Maximum change in heart rate [3]: 9 beats/minute
13 | O=c1ccc2cc(OCCCS(=O)(=O)N(CCN3CCC(O)CC3)C3CCCCC3)ccc2[nH]1 [Example 86] | 8 | 12 | inhibition at 10 µM [4]: 47%
14 | O=c1ccc2cc(OCCCCS(=O)(=O)N(CCN3CCCS3(=O)=O)Cc3ccccc3)ccc2[nH]1 [Example 105] | 2.2 | 1.1 | –
15 | CCN1C[C@H](O)C[C@H]1CN(CC1CCCCC1)S(=O)(=O)CCCCOc1ccc2[nH]c(=O)ccc2c1 [Example 106] | 1.4 | 0.9 | –
16 | CCN(CC)CC(CO)N(CC1CCCCCCC1)S(=O)(=O)CCCCOc1ccc2[nH]c(=O)ccc2c1 (centres unmarked) [Example 107] | 3.4 | 3.2 | –
17 | O=c1ccc2cc(OCCCCS(=O)(=O)N(CCNCCO)CC3CCCCCCC3)ccc2[nH]1 [Example 108] | 2.9 | 2 | –
18 | CCN(CC)CCN(CC1CCCCCC1)S(=O)(=O)CCCOc1ccc2[nH]c(=O)ccc2c1 [Example 110] | 4.7 | 8.3 | –
19 | CC(=O)NCCN(CC1CCCCCCC1)S(=O)(=O)CCCOc1ccc2[nH]c(=O)ccc2c1 [Example 111] | 2.2 | 2.9 | –
20 | CC(=O)NCCN(CC1CCCCCCC1)S(=O)(=O)CCCCOc1ccc2[nH]c(=O)ccc2c1 [Example 112] | 0.83 | 0.69 | –
21 | CCOC(=O)CN(CC1CCCCCCC1)S(=O)(=O)CCCOc1ccc2[nH]c(=O)ccc2c1 [Example 114] | 6.5 | 4 | –
22 | O=c1ccc2cc(OCCCCN(Cc3ccccc3)S(=O)(=O)CCN3CCC(O)CC3)ccc2[nH]1 [Example 119] | 20 | 20 | inhibition at 10 µM [4]: 40%
23 | O=c1ccc2cc(OCCCCN(Cc3ccccc3)S(=O)(=O)CCn3cncn3)ccc2[nH]1 [Example 121] | – | – | inhibition at 30 µM [4]: 38%
24 | O=c1ccc2cc(OCCCCN(Cc3ccccc3)S(=O)(=O)CCCn3ccnc3)ccc2[nH]1 [Example 122] | 22 | 29 | –
25 | O=c1ccc2cc(OCCCCN(Cc3ccccc3)S(=O)(=O)CCCn3cncn3)ccc2[nH]1 [Example 123] | 17 | 9.5 | inhibition at 10 µM [4]: 39%
26 | O=c1ccc2cc(OCCCCN(Cc3ccccc3)S(=O)(=O)CCCN3CCC[C@H]3CO)ccc2[nH]1 [Example 126] | 10 | 15 | –
27 | O=c1ccc2cc(OCCCCN(CCN3CCC(O)CC3)S(=O)(=O)CC3CCCCC3)ccc2[nH]1 [Example 130] | 14 | 13 | inhibition at 10 µM [4]: 43%
28 | O=C(NCCCOc1ccc2[nH]c(=O)ccc2c1)N(CCN1CCC(O)CC1)CC1CCCCCCC1 [Example 131] | 2.4 | 1.3 | –
29 | O=c1ccc2cc(OCCCNC(=S)N(CCN3CCC(O)CC3)CC3CCCCCCC3)ccc2[nH]1 [Example 132] | 2.4 | 1.8 | –
